The values that follow come from patent US20110178064A1, “SPIRO CONDENSED […] DERIVATIVES FOR USE AS ANTIBACTERIAL” (A[…]&D, priority 2007, published 2011).

Molecules are shown by their SMILES. Some results are limits rather than exact numbers.

As usually defined, the IC50 is the point on the concentration scale where inhibition reaches its midpoint. Low values mean inhibition by little substance, high ones a need for much substance.

This experiment deals with Escherichia coli DNA gyrase A/B tetramer (Escherichia coli, UniProt P0AES4+P0AES6). Put plainly: DNA gyrase supercoiling activity fluorescence polarisation assay. The format is biochemical. The procedure:
The supercoiling reactions may be quenched by the addition of 10 microliters/well of 40 nM oligodeoxynucleotide probe in 3× triplex-forming buffer consisting of 150 mM NaCl, and 150 mM sodium acetate at pH 3.5. The oligodeoxynucleotide probe may be 5′-BODIPY-FL-labeled […]. After 60 minutes, the fluorescence anisotropy of the BODIPY-FL may be measured in a Tecan Ultra plate reader, using 485 nm excitation and 535 nm emission filters equipped with polarizers. The IC50 may be determined by nonliner regression using two control reactions. The first contains no test compound but 0.8% DMSO (100% activity) while the second control reaction contains 5 uM Ciprofloxacin and 0.8% DMSO (0% activity).

Sequence of Escherichia coli DNA gyrase A/B tetramer (P0AES4 whole entry, one chain of several): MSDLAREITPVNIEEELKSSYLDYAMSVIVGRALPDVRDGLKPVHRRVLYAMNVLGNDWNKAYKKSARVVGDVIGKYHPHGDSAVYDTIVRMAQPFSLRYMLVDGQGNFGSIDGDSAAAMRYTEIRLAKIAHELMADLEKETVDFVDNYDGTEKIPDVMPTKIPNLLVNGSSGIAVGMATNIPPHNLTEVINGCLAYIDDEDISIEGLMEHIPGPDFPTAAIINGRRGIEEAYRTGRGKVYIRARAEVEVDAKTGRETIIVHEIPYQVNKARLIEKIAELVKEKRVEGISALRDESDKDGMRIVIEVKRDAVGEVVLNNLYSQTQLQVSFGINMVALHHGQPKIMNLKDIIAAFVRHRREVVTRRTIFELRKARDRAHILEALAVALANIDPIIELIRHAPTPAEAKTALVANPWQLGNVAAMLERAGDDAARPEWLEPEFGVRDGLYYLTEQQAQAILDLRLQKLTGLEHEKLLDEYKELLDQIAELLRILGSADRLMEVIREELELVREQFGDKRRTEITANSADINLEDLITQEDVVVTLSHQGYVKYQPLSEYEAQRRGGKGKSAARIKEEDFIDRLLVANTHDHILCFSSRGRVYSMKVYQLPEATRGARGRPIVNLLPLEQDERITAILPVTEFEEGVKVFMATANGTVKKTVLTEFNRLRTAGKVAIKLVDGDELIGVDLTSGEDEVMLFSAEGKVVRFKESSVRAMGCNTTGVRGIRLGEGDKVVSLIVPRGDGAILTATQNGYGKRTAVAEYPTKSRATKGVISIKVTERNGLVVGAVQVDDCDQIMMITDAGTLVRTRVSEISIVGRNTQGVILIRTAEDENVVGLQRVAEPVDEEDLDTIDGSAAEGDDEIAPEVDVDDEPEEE

Compound `C[C@@H]1CN2c3cnc(-c4cccc5cccnc45)cc3CC3(C(=O)NC(=O)NC3=O)[C@H]2[C@H](C)O1` (relative stereo) [Example 62, (6aS,7S,9R)-rel-7,9-Dimethyl-3-(quinolin-8-yl)-6a,7,9,10-tetrahydro-2′H,5H-spiro[1,4-oxazino[4,3-a][1,7]naphthyridine-6,5′-pyrimidine]-2′,4′,6′(1′H,3′H)-trione] registered a 50% inhibitory concentration (IC50) of 8 µM. In other words, the single-digit micromolar range.
On to `C[C@@H]1CN2c3cnc(-c4ccoc4)cc3CC3(C(=O)NC(=O)NC3=O)[C@H]2[C@H](C)O1` (relative stereo) [Example 63, (6aS,7S,9R)-rel-3-(furan-3-yl)-7,9-dimethyl-6a,7,9,10-tetrahydro-2′H,5H-spiro[1,4-oxazino[4,3-a][1,7]naphthyridine-6,5′-pyrimidine]-2′,4′,6′(1′H,3′H)-trione], for which the concentration for half-maximal inhibition (IC50) is 35 µM.
Then `Cc1noc(C)c1-c1cc2c(cn1)N1C[C@@H](C)O[C@@H](C)[C@@H]1C1(C2)C(=O)NC(=O)NC1=O` (relative stereo) [Example 64, (6aS,7S,9R)-rel-3-(3,5-Dimethylisoxazol-4-yl)-7,9-dimethyl-6a,7,9,10-tetrahydro-2′H,5H-spiro[1,4-oxazino[4,3-a][1,7]naphthyridine-6,5′-pyrimidine]-2′,4′,6′(1′H,3′H)-trione], with above 83 µM; and `C[C@@H]1CN2c3cnc(-c4ccncc4)cc3CC3(C(=O)NC(=O)NC3=O)[C@H]2[C@H](C)O1` (relative stereo) [Example 65, (6aS,7S,9R)-rel-7,9-Dimethyl-3-(pyridin-4-yl)-6a,7,9,10-tetrahydro-2′H,5H-spiro[1,4-oxazino[4,3-a][1,7]naphthyridine-6,5′-pyrimidine]-2′,4′,6′(1′H,3′H)-trione], with above 10 µM; and `C[C@@H]1CN2c3cnc(-c4cnn(C)c4)cc3CC3(C(=O)NC(=O)NC3=O)[C@H]2[C@H](C)O1` (relative stereo) [Example 66, (6aS,7S,9R)-rel-7,9-dimethyl-3-(1-methyl-1H-pyrazol-4-yl)-6a,7,9,10-tetrahydro-2′H,5H-spiro[1,4-oxazino[4,3-a][1,7]naphthyridine-6,5′-pyrimidine]-2′,4′,6′(1′H,3′H)-trione], with above 83 µM.
To `C[C@@H]1CN2c3ccc(-c4cc5ccccc5o4)nc3CC3(C(=O)NC(=O)NC3=O)[C@H]2[C@H](C)O1` (relative stereo) [Example 68, (2R,4S,4aS)-rel-8-(1-Benzofuran-2-yl)-2,4-dimethyl-1,2,4,4a-tetrahydro-2′H,6H-spiro[1,4-oxazino[4,3-a][1,5]naphthyridine-5,5′-pyrimidine]-2′,4′,6′(1′H,3′H)-trione] belongs 8 µM; to `C[C@@H]1CN2c3ccc(-c4ccnn4C)nc3CC3(C(=O)NC(=O)NC3=O)[C@H]2[C@H](C)O1` (relative stereo) [Example 70, (2R,4S,4aS)-rel-2,4-Dimethyl-8-(1-methyl-1H-pyrazol-5-yl)-1,2,4,4a-tetrahydro-2′H,6H-spiro[1,4-oxazino[4,3-a][1,5]naphthyridine-5,5′-pyrimidine]-2′,4′,6′(1′H,3′H)-trione], 3 µM.
Then `COc1ccncc1-c1ccc2c(n1)CC1(C(=O)NC(=O)NC1=O)[C@H]1[C@H](C)O[C@H](C)CN21` (relative stereo) [Example 71, (2R,4S,4aS)-rel-8-(4-Methoxypyridin-3-yl)-2,4-dimethyl-1,2,4,4a-tetrahydro-2′H,6H-spiro[1,4-oxazino[4,3-a][1,5]naphthyridine-5,5′-pyrimidine]-2′,4′,6′(1′H,3′H)-trione], with 16 µM; and `C[C@@H]1CN2c3ccc(-c4cncnc4)nc3CC3(C(=O)NC(=O)NC3=O)[C@H]2[C@H](C)O1` (relative stereo) [Example 73, (2R,4S,4aS)-rel-2,4-Dimethyl-8-(pyrimidin-5-yl)-1,2,4,4a-tetrahydro-2′H,6H-spiro[1,4-oxazino[4,3-a][1,5]naphthyridine-5,5′-pyrimidine]-2′,4′,6′(1′H,3′H)-trione], with 3 µM.
Consider `C[C@@H]1CN2c3ccc(-c4cccnc4)nc3CC3(C(=O)NC(=O)NC3=O)[C@H]2[C@H](C)O1` (relative stereo) [Example 74, (2R,4S,4aS)-rel-2,4-Dimethyl-8-(pyridin-3-yl)-1,2,4,4a-tetrahydro-2′H,6H-spiro[1,4-oxazino[4,3-a][1,5]naphthyridine-5,5′-pyrimidine]-2′,4′,6′(1′H,3′H)-trione], for which inhibition was half-maximal at 4 µM (IC50). This IC50 and that of the compound before are within 1.5-fold of each other.
Then `C[C@@H]1CN2c3ccc(-c4cccc5cccnc45)nc3CC3(C(=O)NC(=O)NC3=O)[C@H]2[C@H](C)O1` (relative stereo) [Example 75, (2R,4S,4aS)-rel-2,4-Dimethyl-8-(quinolin-8-yl)-1,2,4,4a-tetrahydro-2′H,6H-spiro[1,4-oxazino[4,3-a][1,5]naphthyridine-5,5′-pyrimidine]-2′,4′,6′(1′H,3′H)-trione], with 8 µM; and `C[C@@H]1CN2c3ccc(-c4ccoc4)nc3CC3(C(=O)NC(=O)NC3=O)[C@H]2[C@H](C)O1` (relative stereo) [Example 76, (2R,4S,4aS)-rel-8-(Furan-3-yl)-2,4-dimethyl-1,2,4,4a-tetrahydro-2′H,6H-spiro[1,4-oxazino[4,3-a][1,5]naphthyridine-5,5′-pyrimidine]-2′,4′,6′(1′H,3′H)-trione], with 21 µM; and `Cc1noc(C)c1-c1ccc2c(n1)CC1(C(=O)NC(=O)NC1=O)[C@H]1[C@H](C)O[C@H](C)CN21` (relative stereo) [Example 77, (2R,4S,4aS)-rel-8-(3,5-Dimethylisoxazol-4-yl)-2,4-dimethyl-1,2,4,4a-tetrahydro-2′H,6H-spiro[1,4-oxazino[4,3-a][1,5]naphthyridine-5,5′-pyrimidine]-2′,4′,6′(1′H,3′H)-trione], with 8 µM.
The compound `C[C@@H]1CN2c3ccc(-c4ccncc4)nc3CC3(C(=O)NC(=O)NC3=O)[C@H]2[C@H](C)O1` (relative stereo) [Example 78, (2R,4S,4aS)-rel-2,4-dimethyl-8-(pyridin-4-yl)-1,2,4,4a-tetrahydro-2′H,6H-spiro[1,4-oxazino[4,3-a][1,5]naphthyridine-5,5′-pyrimidine]-2′,4′,6′(1′H,3′H)-trione] returned an IC50 of 2 µM. Compared with the last compound, the IC50 is about 4-fold lower.
To `C[C@@H]1CN2c3ccc(-c4cnn(C)c4)nc3CC3(C(=O)NC(=O)NC3=O)[C@H]2[C@H](C)O1` (relative stereo) [Example 79, (2R,4S,4aS)-rel-2,4-Dimethyl-8-(1-methyl-1H-pyrazol-4-yl)-1,2,4,4a-tetrahydro-2′H,6H-spiro[1,4-oxazino[4,3-a][1,5]naphthyridine-5,5′-pyrimidine]-2′,4′,6′(1′H,3′H)-trione] belongs 17 µM; to `C[C@@H]1CN2c3ccc(-c4cnccn4)nc3CC3(C(=O)NC(=O)NC3=O)[C@H]2[C@H](C)O1` (relative stereo) [Example 80, (2R,4S,4aS)-rel-2,4-Dimethyl-8-(pyrazin-2-yl)-1,2,4,4a-tetrahydro-2′H,6H-spiro[1,4-oxazino[4,3-a][1,5]naphthyridine-5,5′-pyrimidine]-2′,4′,6′(1′H,3′H)-trione], above 5 µM; to `C[C@@H]1CN2c3ncc(-c4ccc(F)cc4)cc3CC3(C(=O)NC(=O)NC3=O)[C@H]2[C@H](C)O1` (relative stereo) [Example 81, (6aS,7S,9R)-rel-3-(4-Fluorophenyl)-7,9-dimethyl-6a,7,9,10-tetrahydro-2′H,5H-spiro[1,4-oxazino[4,3-a][1,8]naphthyridine-6,5′-pyrimidine]-2′,4′,6′(1′H,3′H)-trione], 8 µM.
